# Laboratory results published in ChEMBL document CHEMBL3632615, “N(6)-(2-Hydroxyethyl)adenosine in the Medicinal Mushroom Cordyceps cicadae Attenuates Lipopolysaccharide-Stimulated Pro-inflammatory Responses by Suppressing TLR4-Mediated NF-κB Signaling Pathways” (J Nat Prod, 2015).
# Calls of active or inactive are those of the source. The rule behind the calls is not given here.
# Columns and labels:
# Assay type in all cases: cell-based
# [1] = target: T1, Toll-like receptor 4 (Mus musculus) (UniProt Q9QUK6); assay: Inhibition of TLR4-mediated NF-kappaB signaling pathway in BALB/c mouse RAW264.7 cells assessed as suppression of LPS-stimulated TNF-alpha production at 2.5 to 10 ug/ml preincubated for 1 hr followed by LPS challenge measured after 6 hrs by immunoblot analysis
# T1 sequence (whole entry): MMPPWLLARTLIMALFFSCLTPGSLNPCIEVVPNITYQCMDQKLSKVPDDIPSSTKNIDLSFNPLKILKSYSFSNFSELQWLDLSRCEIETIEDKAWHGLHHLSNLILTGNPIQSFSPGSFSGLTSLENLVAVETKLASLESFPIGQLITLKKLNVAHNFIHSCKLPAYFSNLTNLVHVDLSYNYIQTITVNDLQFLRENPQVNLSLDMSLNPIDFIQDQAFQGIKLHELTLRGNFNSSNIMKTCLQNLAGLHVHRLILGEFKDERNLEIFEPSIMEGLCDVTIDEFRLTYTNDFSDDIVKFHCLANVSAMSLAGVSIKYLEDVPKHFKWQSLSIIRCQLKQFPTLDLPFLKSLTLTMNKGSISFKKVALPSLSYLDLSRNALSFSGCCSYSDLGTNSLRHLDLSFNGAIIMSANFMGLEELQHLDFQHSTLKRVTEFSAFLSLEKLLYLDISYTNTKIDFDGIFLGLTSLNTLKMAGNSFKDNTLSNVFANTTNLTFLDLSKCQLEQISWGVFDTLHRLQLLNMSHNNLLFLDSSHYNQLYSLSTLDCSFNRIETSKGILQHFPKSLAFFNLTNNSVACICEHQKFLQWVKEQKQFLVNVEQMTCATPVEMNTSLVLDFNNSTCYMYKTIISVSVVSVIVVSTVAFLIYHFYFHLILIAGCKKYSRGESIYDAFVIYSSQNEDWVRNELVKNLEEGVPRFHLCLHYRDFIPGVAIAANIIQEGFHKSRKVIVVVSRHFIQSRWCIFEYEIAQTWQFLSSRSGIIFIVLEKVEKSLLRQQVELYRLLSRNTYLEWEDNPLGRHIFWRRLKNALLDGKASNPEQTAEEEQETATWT
# [2] = target: T1, Toll-like receptor 4 (Mus musculus); assay: Inhibition of TLR4-mediated NF-kappaB signaling pathway in BALB/c mouse RAW264.7 cells assessed as suppression of LPS-stimulated TNF-alpha production at 0.5 to 5 ug/ml preincubated for 1 hr followed by LPS challenge measured after 6 hrs by immunoblot analysis in presence of cordycepin
# [3] = target: T1, Toll-like receptor 4 (Mus musculus); assay: Inhibition of TLR4-mediated NF-kappaB signaling pathway in BALB/c mouse RAW264.7 cells assessed as suppression of LPS-stimulated TNF-alpha production at 0.5 to 5 ug/ml preincubated for 1 hr followed by LPS challenge measured after 6 hrs by immunoblot analysis in presence of HEA
# [4] = target: T1, Toll-like receptor 4 (Mus musculus); assay: Inhibition of TLR4-mediated NF-kappaB signaling pathway in BALB/c mouse RAW264.7 cells assessed as suppression of LPS-stimulated PGE2 production at 2.5 to 10 ug/ml preincubated for 1 hr followed by LPS challenge measured after 6 hrs by immunoblot analysis
# [5] = target: T1, Toll-like receptor 4 (Mus musculus); assay: Inhibition of TLR4-mediated NF-kappaB signaling pathway in BALB/c mouse RAW264.7 cells assessed as suppression of LPS-stimulated PGE2 production at 0.5 to 5 ug/ml preincubated for 1 hr followed by LPS challenge measured after 6 hrs by immunoblot analysis in presence of cordycepin
# [6] = target: T1, Toll-like receptor 4 (Mus musculus); assay: Inhibition of TLR4-mediated NF-kappaB signaling pathway in BALB/c mouse RAW264.7 cells assessed as suppression of LPS-stimulated PGE2 production at 0.5 to 5 ug/ml preincubated for 1 hr followed by LPS challenge measured after 6 hrs by immunoblot analysis in presence of HEA
# [7] = target: T1, Toll-like receptor 4 (Mus musculus); assay: Inhibition of TLR4-mediated NF-kappaB signaling pathway in BALB/c mouse RAW264.7 cells assessed as suppression of LPS-stimulated TNF-alpha production at 1 to 10 ug/ml preincubated for 1 hr followed by LPS challenge measured after 6 hrs by immunoblot analysis
# [8] = target: T1, Toll-like receptor 4 (Mus musculus); assay: Inhibition of TLR4-mediated NF-kappaB signaling pathway in BALB/c mouse RAW264.7 cells assessed as suppression of LPS-stimulated TNF-alpha production at 0.5 to 5 ug/ml preincubated for 1 hr followed by LPS challenge measured after 6 hrs by immunoblot analysis in presence of adenosine
# [9] = target: T1, Toll-like receptor 4 (Mus musculus); assay: Inhibition of TLR4-mediated NF-kappaB signaling pathway in BALB/c mouse RAW264.7 cells assessed as suppression of LPS-stimulated PGE2 production at 1 to 10 ug/ml preincubated for 1 hr followed by LPS challenge measured after 6 hrs by immunoblot analysis
# [10] = target: T1, Toll-like receptor 4 (Mus musculus); assay: Inhibition of TLR4-mediated NF-kappaB signaling pathway in BALB/c mouse RAW264.7 cells assessed as suppression of LPS-stimulated PGE2 production at 0.5 to 5 ug/ml preincubated for 1 hr followed by LPS challenge measured after 6 hrs by immunoblot analysis in presence of adenosine
SMILES,inhibition [1],inhibition [2],inhibition [3],inhibition [4],inhibition [5],inhibition [6],inhibition [7],inhibition [8],inhibition [9],inhibition [10]
Nc1ncnc2c1ncn2[C@@H]1O[C@H](CO)[C@@H](O)[C@H]1O,Active,inactive,inactive,Active,inactive,inactive,–,–,–,–
Nc1ncnc2c1ncn2[C@@H]1O[C@H](CO)C[C@H]1O,–,–,inactive,–,–,inactive,Active,inactive,Active,inactive
